Experimental data from PMC10833116 (Journal of Enzyme Inhibition and Medicinal Chemistry, 2024).

What follows are molecules tested on adult female Wistar rats (assay: Gastric ulcerogenic activity). Conditions: fasted rats.
Type: in vivo, rat

| Structure (SMILES) | Gastric ulcerogenic potential, gross examination |
| --- | --- |
| Cc1ccc(-c2cc(C(F)(F)F)nn2-c2ccc(S(N)(=O)=O)cc2)cc1 [Celecoxib, celecoxib, reference compound] | no ulceration |
| Cc1ccc(C(C)C)c(O)c1C=NN=c1scc(-c2ccccc2)n1-c1ccccc1 [Compound 6a, 2-((2-Hydroxy-3-isopropyl-6-methylbenzylidene)hydrazono)-3,4-diphenyl-2,3-dihydrothiazole] | no ulceration |
| Cc1ccc(C(C)C)c(O)c1C=NN=c1scc(-c2ccccc2)n1-c1ccccc1Cl [Compound 6b, 2-((2-Hydroxy-3-isopropyl-6-methylbenzylidene)hydrazono)-3-(2-chlorophenyl)-4-phenyl-2,3-dihydrothiazole] | no ulceration |
| Cc1ccc(C(C)C)c(O)c1C=NN=c1scc(-c2ccc(Br)cc2)n1-c1ccccc1Cl [Compound 6f, 2-((2-Hydroxy-3-isopropyl-6-methylbenzylidene)hydrazono)-3-(2-chlorophenyl)-4-(4-bromophenyl)-2,3-dihydrothiazole] | no ulceration |
| O=C(O)Cc1ccccc1Nc1c(Cl)cccc1Cl [Diclofenac sodium, diclofenac sodium, reference compound] | no ulceration |
